# Measured values from patent US4180506A, “6β-Bromo penicillanic acid” (priority 1978, dated 1979).
# Like-named read-outs stand apart in the source and are kept apart here.
# How the values were obtained:
# Vibrio percolans MB-1272 = experiment: Bilayer agar diffusion test, potentiation of Pen G in the presence of penicillinase; format: cell-based
# [1] = system: two penicillinase-producing animal-pathogenic strains of Staphylococcus aureus; format: cell-based, Staphylococcus aureus MB-3648 and MB-3649
# S. aureus MB-3648 = experiment: Disc agar diffusion test, potentiation of Pen G and ampicillin; format: cell-based, Staphylococcus aureus MB-3648
# S. aureus MB-3649 = experiment: as above; format: cell-based, Staphylococcus aureus MB-3649
# [2] = subinhibitory concentration (1/4 MZC), extrapolated on standard/regression curve
# [3] = Ampicillin 15.7 μg/ml plus 4 μg/ml clavulanic acid
# [4] = Ampicillin 15.7 μg/ml plus 32 μg/ml 6 BPA
# [5] = Ampicillin 31.3 μg/ml plus 4 μg/ml clavulanic acid
# [6] = Ampicillin 31.3 μg/ml plus 32 μg/ml 6 BPA
# [7] = Ampicillin 62.5 μg/ml plus 4 μg/ml clavulanic acid
# [8] = Ampicillin 62.5 μg/ml plus 32 μg/ml 6 BPA
# [9] = Ampicillin 125 μg/ml plus 4 μg/ml clavulanic acid
# [10] = Ampicillin 125 μg/ml plus 32 μg/ml 6 BPA
# [11] = Ampicillin 250 μg/ml plus 4 μg/ml clavulanic acid
# [12] = Ampicillin 250 μg/ml plus 32 μg/ml 6 BPA
smiles,measurement,setting,value
O=C(O)[C@H]1/C(=C/CO)O[C@@H]2CC(=O)N21 [Clavulanic Acid],"Zone of inhibition, Antibiotic + Penase + Pen G","Vibrio percolans MB-1272; 1 μg/ml, Penase 10^4 units/ml, Pen G 5 μg/ml",0 mm
same,"Zone of inhibition, Antibiotic + Penase + Pen G","Vibrio percolans MB-1272; 2 μg/ml, Penase 10^4 units/ml, Pen G 5 μg/ml",0 mm
same,"Zone of inhibition, Antibiotic + Penase + Pen G","Vibrio percolans MB-1272; 4 μg/ml, Penase 10^4 units/ml, Pen G 5 μg/ml",0 mm
same,"Zone of inhibition, Antibiotic + Penase + Pen G","Vibrio percolans MB-1272; 8 μg/ml, Penase 10^4 units/ml, Pen G 5 μg/ml",0 mm
same,"Zone of inhibition, Antibiotic + Penase + Pen G","Vibrio percolans MB-1272; 16 μg/ml, Penase 10^4 units/ml, Pen G 5 μg/ml",10 mm
same,"Zone of inhibition, Antibiotic + Penase + Pen G","Vibrio percolans MB-1272; 31 μg/ml, Penase 10^4 units/ml, Pen G 5 μg/ml",21 mm
same,zone of inhibition at 1 µg/mL,"Vibrio percolans MB-1272; Comamonas terrigena, MB1272, 1 μg/ml, Penase 10^4 units/ml, read-out: Zone of inhibition, Antibiotic + Penase",0 mm
same,zone of inhibition at 1 µg/mL,"Vibrio percolans MB-1272; Comamonas terrigena, MB1272, 1 μg/ml, read-out: Zone of inhibition, Antibiotic Alone",0 mm
same,zone of inhibition at 2 µg/mL,"Vibrio percolans MB-1272; Comamonas terrigena, MB1272, 2 μg/ml, Penase 10^4 units/ml, read-out: Zone of inhibition, Antibiotic + Penase",0 mm
same,zone of inhibition at 2 µg/mL,"Vibrio percolans MB-1272; Comamonas terrigena, MB1272, 2 μg/ml, read-out: Zone of inhibition, Antibiotic Alone",0 mm
same,zone of inhibition at 4 µg/mL,"Vibrio percolans MB-1272; Comamonas terrigena, MB1272, 4 μg/ml, Penase 10^4 units/ml, read-out: Zone of inhibition, Antibiotic + Penase",0 mm
same,zone of inhibition at 4 µg/mL,"Vibrio percolans MB-1272; Comamonas terrigena, MB1272, 4 μg/ml, read-out: Zone of inhibition, Antibiotic Alone",0 mm
same,zone of inhibition at 8 µg/mL,"Vibrio percolans MB-1272; Comamonas terrigena, MB1272, 8 μg/ml, read-out: Zone of inhibition, Antibiotic Alone",0 mm
same,zone of inhibition at 16 µg/mL,"Vibrio percolans MB-1272; Comamonas terrigena, MB1272, 16 μg/ml, Penase 10^4 units/ml, read-out: Zone of inhibition, Antibiotic + Penase",10 mm
same,zone of inhibition at 16 µg/mL,"Vibrio percolans MB-1272; Comamonas terrigena, MB1272, 16 μg/ml, read-out: Zone of inhibition, Antibiotic Alone",8 mm
same,zone of inhibition at 31 µg/mL,"Vibrio percolans MB-1272; Comamonas terrigena, MB1272, 31 μg/ml, Penase 10^4 units/ml, read-out: Zone of inhibition, Antibiotic + Penase",21 mm
same,zone of inhibition at 31 µg/mL,"Vibrio percolans MB-1272; Comamonas terrigena, MB1272, 31 μg/ml, read-out: Zone of inhibition, Antibiotic Alone",20 mm
same,Concentration required to produce a zone of inhibition in the presence of Pen G and Penase,"Vibrio percolans MB-1272; Pen G 5 μg/ml, Penase 10^4 units/ml",16 µg/mL
same,Amount of clavulanic acid required relative to 6 BPA to produce a zone of inhibition,Vibrio percolans MB-1272; in the presence of Pen G and Penase,64 times
same,Potentiation of Pen G,[1]; [2],64 fold
same,Potentiation of ampicillin,[1]; [2],32 fold
same,1/4 of minimum zone-inducing concentration (1/4MZC),[1]; substance alone vs either MB3648 or MB3649,4 µg/mL
CC1(C)S[C@@H]2[C@H](NC(=O)[C@H](N)c3ccccc3)C(=O)N2[C@H]1C(=O)O [Ampicillin],"Inhibition Zone Diameter, plus Clavulanic Ac",S. aureus MB-3648; [3],22 mm
same,"Inhibition Zone Diameter, plus 6 BPA",S. aureus MB-3648; [4],23 mm
same,"Inhibition Zone Diameter, plus Clavulanic Ac",S. aureus MB-3648; [5],23 mm
same,"Inhibition Zone Diameter, plus 6 BPA",S. aureus MB-3648; [6],23 mm
same,"Inhibition Zone Diameter, plus Clavulanic Ac",S. aureus MB-3648; [7],26 mm
same,"Inhibition Zone Diameter, plus 6 BPA",S. aureus MB-3648; [8],24 mm
same,"Inhibition Zone Diameter, plus Clavulanic Ac",S. aureus MB-3648; [9],27 mm
same,"Inhibition Zone Diameter, plus 6 BPA",S. aureus MB-3648; [10],25 mm
same,"Inhibition Zone Diameter, plus Clavulanic Ac",S. aureus MB-3648; [11],27 mm
same,"Inhibition Zone Diameter, plus 6 BPA",S. aureus MB-3648; [12],26 mm
same,zone of inhibition at 15.7 µg/mL,"S. aureus MB-3648; Staphylococcus aureus, MB3648, Ampicillin 15.7 μg/ml, read-out: Inhibition Zone Diameter, alone",0 mm
same,zone of inhibition at 31.3 µg/mL,"S. aureus MB-3648; Staphylococcus aureus, MB3648, Ampicillin 31.3 μg/ml, read-out: Inhibition Zone Diameter, alone",0 mm
same,zone of inhibition at 62.5 µg/mL,"S. aureus MB-3648; Staphylococcus aureus, MB3648, Ampicillin 62.5 μg/ml, read-out: Inhibition Zone Diameter, alone",0 mm
same,zone of inhibition at 125 µg/mL,"S. aureus MB-3648; Staphylococcus aureus, MB3648, Ampicillin 125 μg/ml, read-out: Inhibition Zone Diameter, alone",18 mm
same,zone of inhibition at 250 µg/mL,"S. aureus MB-3648; Staphylococcus aureus, MB3648, Ampicillin 250 μg/ml, read-out: Inhibition Zone Diameter, alone",20 mm
same,zone of inhibition at 500 µg/mL,"S. aureus MB-3648; Staphylococcus aureus, MB3648, Ampicillin 500 μg/ml, read-out: Inhibition Zone Diameter, alone",23 mm
same,zone of inhibition at 1000 µg/mL,"S. aureus MB-3648; Staphylococcus aureus, MB3648, Ampicillin 1000 μg/ml, read-out: Inhibition Zone Diameter, alone",26 mm
same,"Inhibition Zone Diameter, plus Clavulanic Ac",S. aureus MB-3649; [3],20 mm
same,"Inhibition Zone Diameter, plus 6 BPA",S. aureus MB-3649; [4],19 mm
same,"Inhibition Zone Diameter, plus Clavulanic Ac",S. aureus MB-3649; [5],23 mm
same,"Inhibition Zone Diameter, plus 6 BPA",S. aureus MB-3649; [6],21 mm
same,"Inhibition Zone Diameter, plus Clavulanic Ac",S. aureus MB-3649; [7],24 mm
same,"Inhibition Zone Diameter, plus 6 BPA",S. aureus MB-3649; [8],23 mm
same,"Inhibition Zone Diameter, plus Clavulanic Ac",S. aureus MB-3649; [9],25 mm
same,"Inhibition Zone Diameter, plus 6 BPA",S. aureus MB-3649; [10],24 mm
same,"Inhibition Zone Diameter, plus Clavulanic Ac",S. aureus MB-3649; [11],24 mm
same,"Inhibition Zone Diameter, plus 6 BPA",S. aureus MB-3649; [12],29 mm
same,zone of inhibition at 15.7 µg/mL,"S. aureus MB-3649; Staphylococcus aureus, MB3649, Ampicillin 15.7 μg/ml, read-out: Inhibition Zone Diameter, alone",0 mm
same,zone of inhibition at 31.3 µg/mL,"S. aureus MB-3649; Staphylococcus aureus, MB3649, Ampicillin 31.3 μg/ml, read-out: Inhibition Zone Diameter, alone",0 mm
same,zone of inhibition at 62.5 µg/mL,"S. aureus MB-3649; Staphylococcus aureus, MB3649, Ampicillin 62.5 μg/ml, read-out: Inhibition Zone Diameter, alone",0 mm
same,zone of inhibition at 125 µg/mL,"S. aureus MB-3649; Staphylococcus aureus, MB3649, Ampicillin 125 μg/ml, read-out: Inhibition Zone Diameter, alone",17 mm
same,zone of inhibition at 250 µg/mL,"S. aureus MB-3649; Staphylococcus aureus, MB3649, Ampicillin 250 μg/ml, read-out: Inhibition Zone Diameter, alone",18 mm
same,zone of inhibition at 500 µg/mL,"S. aureus MB-3649; Staphylococcus aureus, MB3649, Ampicillin 500 μg/ml, read-out: Inhibition Zone Diameter, alone",20 mm
same,zone of inhibition at 1000 µg/mL,"S. aureus MB-3649; Staphylococcus aureus, MB3649, Ampicillin 1000 μg/ml, read-out: Inhibition Zone Diameter, alone",25 mm
CC1(C)S[C@@H]2[C@H](NC(=O)Cc3ccccc3)C(=O)N2[C@H]1C(=O)O [Pen G],zone of inhibition at 5 µg/mL,"Vibrio percolans MB-1272; Comamonas terrigena, MB1272, Penase 10^4 units/ml, Pen G 5 μg/ml, no inhibitor, read-out: Zone of inhibition, Penase + Pen G Alone",0 mm
